# Where two headings read alike, the source gives them in different places.
# Assays:
# [1] = Solubility of compound A in JP dissolution test fluids; assay type: physicochemical
# [2] = Behaviour of compound A upon contact with a solvent (gelation); assay type: physicochemical; conditions: solvent such as water
smiles,measurement,setting,value
"CC[C@@H]1CCCN1Cc1sc(NC(=O)c2cnc(N3CCC(C(=O)O)CC3)cn2)nc1-c1ccc(OC)c(C(F)(F)F)c1 [Compound A, 1-{5-[(5-{[(2R)-2-ethylpyrrolidin-1-yl]methyl}-4-[4-methoxy-3-(trifluoromethyl)phenyl]-1,3-thiazol-2-yl)carbamoyl]pyrazin-2-yl}pyperidine-4-carboxylic acid]",pH dependence of solubility,[1],pH-dependent
same,solubility,"[1]; aqueous buffer, second fluid for a dissolution test of the Japanese Pharmacopoeia, JP2 (pH 6.8), read-out: solubility in a neutral pH range",~17.8 µg/mL
same,solubility,"[1]; simulated gastric fluid, first fluid for a dissolution test of the Japanese Pharmacopoeia, JP1 (pH 1.2), read-out: solubility in an acidic pH range",~44.1 µg/mL
same,gelation upon contact with a solvent,[2],gelled upon contact with a solvent

# Source: patent US10583087B2, “Pharmaceutical composition for oral administration” (ASTELLAS PHARMA INC., priority 2015, dated 2020)
